According to ChEMBL document CHEMBL1201862, “PubChem BioAssay data set” (2004):
One block for each compound: values may come before it. Active and inactive are the calls of the source.

Columns and labels:
[1] = target: Luciferin 4-monooxygenase (Photinus pyralis, UniProt P08659); experiment: firefly luciferase enzyme inhibitors, dose response, biochemical, luminescence (AID 1891)
[2] = Luminescence Cell-Based Dose Confirmation HTS to Identify Inhibitors of Platelet Dense Granule Release. [Related pubchem assays: 1663 (Primary HTS), 1678 (Summary of Project)]; assay type: functional
[3] = target: T1, High affinity choline transporter 1 (Homo sapiens, UniProt Q9GZV3); experiment: CHT inhibitors, dose response, cell-based, 5-point CRC, membrane potential dye (AID 504840); assay type: functional
T1 sequence (Q9GZV3 whole entry): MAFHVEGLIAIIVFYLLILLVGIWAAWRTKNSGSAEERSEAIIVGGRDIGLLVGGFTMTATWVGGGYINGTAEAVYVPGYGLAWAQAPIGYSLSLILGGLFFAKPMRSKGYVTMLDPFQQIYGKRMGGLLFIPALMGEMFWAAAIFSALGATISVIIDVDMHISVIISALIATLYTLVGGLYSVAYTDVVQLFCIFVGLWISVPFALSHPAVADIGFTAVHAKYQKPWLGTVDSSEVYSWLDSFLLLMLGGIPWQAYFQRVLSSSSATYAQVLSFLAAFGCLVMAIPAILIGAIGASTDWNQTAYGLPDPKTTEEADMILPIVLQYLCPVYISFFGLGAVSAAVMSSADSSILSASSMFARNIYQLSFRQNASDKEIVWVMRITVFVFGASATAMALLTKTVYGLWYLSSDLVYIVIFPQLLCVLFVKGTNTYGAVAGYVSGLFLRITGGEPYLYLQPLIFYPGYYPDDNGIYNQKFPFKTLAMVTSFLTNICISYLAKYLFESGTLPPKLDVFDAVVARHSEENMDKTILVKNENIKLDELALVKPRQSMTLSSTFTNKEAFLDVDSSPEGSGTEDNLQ

[4] = target: Heat shock protein HSP 90-alpha (Homo sapiens, UniProt P07900); assay type: functional, organism-based
[5] = test system: BJ; experiment: cells; assay type: functional, cell-based; conditions: Homo sapiens
[6] = test system: BJ; experiment: cytotoxicity toward BJ-TERT-LT-ST fibroblasts, dose response, cell-based, RAS-independent, luminescence (AID 1935); assay type: functional; conditions: Homo sapiens;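 further: BJ fibroblasts immortalized with TERT plus LT and ST oncogenes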
[7] = test system: BJ; experiment: cytotoxicity toward BJ-TERT fibroblasts, dose response, cell-based, RAS-independent, luminescence (AID 1933); assay type: functional; conditions: Homo sapiens
[8] = cytotoxicity toward DRD oncogenic fibroblasts, dose response, cell-based, non-viral oncogenic, luminescence (AID 1934); assay type: functional; conditions: Homo sapiens
[9] = target: Glyceraldehyde-3-phosphate dehydrogenase (Homo sapiens, UniProt P04406)
[10] = target: T2, Short transient receptor potential channel 4 (Mus musculus, UniProt Q9QUQ5); experiment: mouse TRPC4 channel inhibitors, dose response, cell-based, HEK293 TRPC4/mu-opioid, Fluo-4 calcium (AID 434942); assay type: functional;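 further: potency of inhibitors blocking the TRPC4 calcium response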
T2 sequence (Q9QUQ5 whole entry): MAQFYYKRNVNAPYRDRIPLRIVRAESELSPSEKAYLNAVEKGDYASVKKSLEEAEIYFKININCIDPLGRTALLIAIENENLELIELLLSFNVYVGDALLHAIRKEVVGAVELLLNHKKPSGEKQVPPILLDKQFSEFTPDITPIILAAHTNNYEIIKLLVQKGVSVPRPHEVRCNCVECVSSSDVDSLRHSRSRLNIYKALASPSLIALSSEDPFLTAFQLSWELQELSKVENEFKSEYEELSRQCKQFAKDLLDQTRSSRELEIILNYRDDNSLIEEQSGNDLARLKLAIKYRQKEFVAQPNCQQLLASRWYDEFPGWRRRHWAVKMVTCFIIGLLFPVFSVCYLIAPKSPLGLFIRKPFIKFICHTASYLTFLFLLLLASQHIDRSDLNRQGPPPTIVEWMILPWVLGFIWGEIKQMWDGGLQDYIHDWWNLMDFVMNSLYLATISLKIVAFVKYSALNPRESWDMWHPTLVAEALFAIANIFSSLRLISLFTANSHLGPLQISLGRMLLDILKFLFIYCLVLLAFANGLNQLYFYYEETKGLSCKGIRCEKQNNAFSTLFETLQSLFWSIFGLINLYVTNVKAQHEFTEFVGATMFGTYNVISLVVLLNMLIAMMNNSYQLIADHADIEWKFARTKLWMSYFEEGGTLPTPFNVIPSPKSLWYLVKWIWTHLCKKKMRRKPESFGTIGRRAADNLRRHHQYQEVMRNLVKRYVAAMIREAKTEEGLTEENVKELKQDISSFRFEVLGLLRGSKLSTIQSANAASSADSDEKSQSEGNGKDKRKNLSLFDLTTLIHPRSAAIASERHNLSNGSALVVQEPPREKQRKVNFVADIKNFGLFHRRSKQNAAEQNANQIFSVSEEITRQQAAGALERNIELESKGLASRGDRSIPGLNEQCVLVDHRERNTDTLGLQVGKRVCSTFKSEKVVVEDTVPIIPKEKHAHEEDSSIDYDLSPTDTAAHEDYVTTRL

[11] = target: T3, Corticotropin-releasing factor receptor 2/Corticotropin-releasing factor-binding protein (Homo sapiens, UniProt P24387+Q13324); experiment: activators of CRF receptor 2 with binding protein – uHTS hits, confirmation (AID 602473); assay type: functional; conditions: read-out: EC50_Mean
T3 sequence (Q13324 whole entry): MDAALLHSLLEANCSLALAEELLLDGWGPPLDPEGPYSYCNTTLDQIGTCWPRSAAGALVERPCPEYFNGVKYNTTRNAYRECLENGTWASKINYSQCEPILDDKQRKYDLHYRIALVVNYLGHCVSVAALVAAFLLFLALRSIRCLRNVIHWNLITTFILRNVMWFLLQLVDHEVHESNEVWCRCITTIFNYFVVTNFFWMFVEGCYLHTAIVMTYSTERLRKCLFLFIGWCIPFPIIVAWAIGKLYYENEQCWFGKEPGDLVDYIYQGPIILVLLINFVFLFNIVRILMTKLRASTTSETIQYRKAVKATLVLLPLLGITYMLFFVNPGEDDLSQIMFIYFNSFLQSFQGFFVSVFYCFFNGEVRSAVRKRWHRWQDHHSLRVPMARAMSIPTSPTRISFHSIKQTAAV
T3 sequence (P24387 whole entry): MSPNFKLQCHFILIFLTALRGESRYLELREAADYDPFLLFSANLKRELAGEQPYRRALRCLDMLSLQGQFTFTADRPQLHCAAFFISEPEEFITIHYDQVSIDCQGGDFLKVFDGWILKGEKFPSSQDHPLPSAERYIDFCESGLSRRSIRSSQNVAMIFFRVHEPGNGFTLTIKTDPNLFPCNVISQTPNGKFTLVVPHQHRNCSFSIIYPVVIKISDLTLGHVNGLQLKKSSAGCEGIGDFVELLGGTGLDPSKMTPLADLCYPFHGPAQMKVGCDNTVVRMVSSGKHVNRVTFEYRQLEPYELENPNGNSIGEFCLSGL

[12] = target: T3, Corticotropin-releasing factor receptor 2/Corticotropin-releasing factor-binding protein; experiment: Dose Response confirmation of uHTS hits for small molecule antagonists of the CRF-binding protein and CRF-R2 receptor complex.; assay type: functional; conditions: read-out: IC50_Mean
[13] = HEK293T cytotoxicity, dose response, cytotoxicity control for miR-122 modulator project, cell-based, inhibitor set, cherry-pick, set 2 (AID 720697); assay type: functional

Chain of Glyceraldehyde-3-phosphate dehydrogenase (P04406 whole entry): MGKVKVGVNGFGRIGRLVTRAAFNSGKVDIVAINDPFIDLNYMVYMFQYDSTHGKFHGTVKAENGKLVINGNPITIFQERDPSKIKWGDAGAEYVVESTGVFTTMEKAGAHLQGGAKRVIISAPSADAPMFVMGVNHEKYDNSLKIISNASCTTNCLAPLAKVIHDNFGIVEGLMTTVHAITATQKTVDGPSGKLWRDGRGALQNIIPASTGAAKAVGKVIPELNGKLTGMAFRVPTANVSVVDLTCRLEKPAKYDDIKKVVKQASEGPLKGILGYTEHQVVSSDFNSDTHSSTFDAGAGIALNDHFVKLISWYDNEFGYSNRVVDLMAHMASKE
Chain of Luciferin 4-monooxygenase (P08659 whole entry): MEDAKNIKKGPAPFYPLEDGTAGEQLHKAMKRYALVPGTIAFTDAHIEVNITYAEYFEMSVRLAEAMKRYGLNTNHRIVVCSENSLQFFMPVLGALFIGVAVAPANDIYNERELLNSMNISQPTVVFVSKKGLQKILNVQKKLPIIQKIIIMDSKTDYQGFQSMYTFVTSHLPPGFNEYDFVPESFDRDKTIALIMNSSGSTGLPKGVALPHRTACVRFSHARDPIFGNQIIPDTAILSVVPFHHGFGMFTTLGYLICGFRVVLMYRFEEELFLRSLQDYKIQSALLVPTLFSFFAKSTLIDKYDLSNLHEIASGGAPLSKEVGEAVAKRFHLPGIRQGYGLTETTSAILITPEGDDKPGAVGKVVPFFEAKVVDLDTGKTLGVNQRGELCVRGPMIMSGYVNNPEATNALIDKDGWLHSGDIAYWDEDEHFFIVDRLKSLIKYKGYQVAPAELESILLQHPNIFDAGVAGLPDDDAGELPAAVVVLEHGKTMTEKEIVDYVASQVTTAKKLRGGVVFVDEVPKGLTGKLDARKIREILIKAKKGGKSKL

SMILES: COc1cc2c(cc1OC)-c1cc(NC3CCCCCC3)nc(=O)n1CC2
EC50 [1]: > 112 µM (not active)
EC50 [2]: 2.94 µM (active)
IC50 [3]: 12.9 µM (active)

AC50 [4]: 3.99 µM (active)
SMILES: Cc1ccc(C(=O)C(SC(C)(C)C)n2cncn2)cc1 (configuration not stated)

SMILES: CCOC(=O)c1ccc(NC(=O)C(=O)NCc2ccco2)cc1
EC50 [5]: > 150 µM (not active)
EC50 [6]: > 150 µM (not active)
EC50 [7]: > 150 µM (not active)
EC50 [8]: > 150 µM (not active)

IC50 [9]: > 50 µM (inconclusive)
SMILES: Cc1ccc(N2C(=O)C(Cl)=C(N3CCN(Cc4ccc5c(c4)OCO5)CC3)C2=O)cc1

EC50 [10]: 2.66 µM (active)
SMILES: CCN(CC)c1nc2ccccc2c(N)c1-c1ccccc1

EC50 [10]: 4.73 µM (active)
SMILES: CCOc1ccc2ccccc2c1CNCCc1ccc(S(N)(=O)=O)cc1

EC50 [11]: > 53 µM (inactive)
IC50 [12]: > 47.1 µM (inactive)
SMILES: COc1ccccc1/C=C/C(=O)N1CCOCC1

EC50 [11]: > 53 µM (inactive)
IC50 [12]: > 47.1 µM (inactive)
SMILES: CCc1nnc(NC(=O)CSc2nnnn2-c2cccc(C(C)=O)c2)s1

SMILES: CNc1nc(NCC2CCCCC2)c2sccc2n1
AC50 [13]: 3.63 µM (active)

EC50 [11]: > 53 µM (inactive)
IC50 [12]: > 47.1 µM (inactive)
SMILES: CCCC1CC(C#N)N(N(C)C)C1=C(C#N)C#N (configuration not stated)

EC50 [11]: > 53 µM (inactive)
IC50 [12]: > 47.1 µM (inactive)
SMILES: Cc1ccc(NC(=O)c2ncn(CCCNCC3CCCO3)n2)cc1C (configuration not stated)

SMILES: COC(=O)C[C@@H]1CC[C@H]2[C@@H](COc3ccc(NC(=O)c4ccc(C(F)(F)F)cc4)cc3C(=O)N2C)O1
AC50 [13]: 10 µM (active)

SMILES: Cc1cccc(NC(=O)Nc2ccc3c(c2)C(=O)N(C)[C@H]2CC[C@H](CC(=O)O)O[C@H]2CO3)c1
AC50 [13]: 10.6 µM (active)
